In US5708063A, “Photochromic compound” (Tokuyama Corporation, priority 1993, dated 1998):

What was measured:
Assay type in all cases: physicochemical
[1] = Photochromic PMMA cast film: initial coloration density, maximum absorption wavelength and fatigue life in xenon fadeometer (Example 9); conditions: PMMA cast film 0.1 mm; for λmax / Initial color density: xenon light; for Initial color density / T1/2: no stabilizer; for T1/2: time for color density to fall to half of initial value, xenon fadeometer;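 on Initial color density: initial color density is an absorbance value so the % unit is wrong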
Source text: The thickness of the cast film was adjusted to 0.1 mm.
(§1) T1/2 is defined as the time required for the color density to decrease to half of its initial value when the film is exposed to the fadeometer.

[2] = Durability of poly(allyl diglycol carbonate) lens impregnated with the compound in silicone oil, as in Example 9 (Example 10); parameters: Initial color density: unit not given here; conditions: silicone oil impregnation; for Initial color density: 1.0×10^-4 mole/g; for T1/2: xenon fadeometer
Protocol: as §1
The solution was impregnated in the surface of a lens composed of poly(allyl diglycol carbonate) at 200° C. for 1 hour. The concentration of the solution was adjusted to 1.0×10^-4 mole/g.

[3] = Fatigue life of photochromic PMMA cast film with ultraviolet stabilizer, xenon fadeometer (Examples 11-14)
Protocol: One hundred parts by weight of benzene, 10 parts by weight of poly(methyl methacrylate), 0.2 part […] The solution was cast on a slide glass (11.2×3.7 cm) to form a cast film having a thickness of 0.1 mm.
The fatigue life of photochromic film was measured as in Example 9 by a xenon long-life fadeometer (FAL-25AX-HC made by Suga Testing Instrument Co., Ltd.).
Example 11 was repeated except that the fulgimide compound obtained in Example 2 was used instead of fulgimide compound used in Example 11.
Example 11 was repeated except that the fulgimide or fulgide compounds shown in Table 28 were used instead of the fulgimide compounds in Example 11, and Cyasorb UV1084 was used as the ultraviolet stabilizer.

[4] = Fatigue life of fulgide/fulgimide and chromene compound in polymerized methacrylate plate (Example 15); conditions: 0.05 part
Protocol: (§2) […] The mixed solution was injected into a mold which was made of a glass plate and a gasket formed of an ethylene-vinyl acetate copolymer, and was heated to a temperature of 35° to 90° C. in an air oven over a period of 20 hours for polymerization. After the polymerization was over, the polymer was withdrawn from the glass plate of the mold.
(§3) The resulting polymerized plate was irradiated with sunlight for 10 minutes. On this occasion, a color tone of said plate was visually observed. In this polymerized plate, the fulgide or fulgimide compound and the chromene compound were measured for fatigue life in the same manner as in Example 9. Further, a color tone of the polymerized plate was visually observed in T1/2 (hrs.) of the fulgide or fulgimide compound.

[5] = Visual color tone of polymerized plate under sunlight (Example 15); conditions: 0.05 part
Protocol: as §2, §3

[6] = PMMA film, UV stabilizer Chimassorb 944, 0.2 part
[7] = PMMA film, UV stabilizer Cyasorb 3346, 0.2 part
[8] = PMMA film, UV stabilizer Cyasorb UV1084, 0.2 part
[9] = PMMA film, UV stabilizer Irgastab 2002, 0.2 part
[10] = PMMA film, UV stabilizer Rylex NBC, 0.2 part
[11] = PMMA film, UV stabilizer Spinuvex A-36, 0.2 part
[12] = PMMA film, UV stabilizer Tinuvin 144, 0.2 part
[13] = PMMA film, UV stabilizer Tinuvin 622, 0.2 part
[14] = PMMA film, UV stabilizer Tinuvin 765, 0.2 part
[15] = PMMA film, UV stabilizer UV Chek AM101, 0.2 part
[16] = PMMA film, UV stabilizer UV Chek AM105, 0.2 part

Compound | λmax [1] [nm] | Initial color density [1] [%] | T1/2 [1] [days] | λmax [2] [nm] | Initial color density [2] | T1/2 [2] [days] | T1/2 [3, 8] [days] | other results
COC(=O)CN1C(=O)C2=C(C3CC3)c3ccsc3C3(C4CCC3CC4)C2C1=O (stereo not shown) [(1), 4-cyclopropyl-6,7-dihydrdo-N-methoxycarbonylmethylspirobenzo[5,6-b]thiophenedicarboxyimido-7,7'-bicyclo[2.2.1]heptane] | 549 | 0.85 | 3.21 | 554 | 0.78 | 3.42 | 12.9 | T1/2 ([3]; Cyasorb UV1084, amount added 0.002, 1 part per 100 parts fulgimide): 9.17 days; T1/2 ([3]; Cyasorb UV1084, amount added 0.1, 50 parts per 100 parts fulgimide): 12.2 days; T1/2 ([3]; Cyasorb UV1084, amount added 0.8, 400 parts per 100 parts fulgimide): 13.8 days; T1/2 ([3]; Cyasorb UV1084, amount added 20, 10000 parts per 100 parts fulgimide): 15.3 days; T1/2 [3, 6]: 11.8 days; T1/2 [3, 7]: 14 days; T1/2 [3, 9]: 12.5 days; T1/2 [3, 10]: 13.5 days; T1/2 [3, 11]: 12.6 days; T1/2 [3, 12]: 12.9 days; T1/2 [3, 13]: 13.6 days; T1/2 [3, 14]: 13.5 days; T1/2 [3, 15]: 12.3 days; T1/2 [3, 16]: 11.3 days; T1/2 ([3]; Tinuvin 765, amount added 0.002, 1 part per 100 parts fulgimide): 8.88 days; T1/2 ([3]; Tinuvin 765, amount added 0.1, 50 parts per 100 parts fulgimide): 12.8 days; T1/2 ([3]; Tinuvin 765, amount added 0.8, 400 parts per 100 parts fulgimide): 14.2 days; T1/2 ([3]; Tinuvin 765, amount added 20, 10000 parts per 100 parts fulgimide): 15.6 days
N#CCN1C(=O)C2=C(C3CC3)c3ccsc3C3(C4CCC3CC4)C2C1=O (stereo not shown) [(2), N-cyanomethyl-4-cyclopropyl-6,7-dihydridospirobenzo[5,6-b]thiophenedicarboxyimido-7,7'-bicyclo[2.2.1]heptane] | 563 | 0.78 | 3.71 | 568 | 0.71 | 3.79 | 14.6 | T1/2 [3, 6]: 13.5 days; T1/2 [3, 7]: 16 days; T1/2 ([3]; PMMA film, UV stabilizer Cyasorb UV1084, 0.2 part, listed as Example 2): 14.8 days; T1/2 [3, 9]: 14.2 days; T1/2 [3, 10]: 15.4 days; T1/2 [3, 11]: 14.4 days; T1/2 [3, 12]: 14.8 days; T1/2 [3, 13]: 15.6 days; T1/2 [3, 14]: 15.5 days; T1/2 [3, 15]: 14 days; T1/2 [3, 16]: 12.8 days
CCC(C(=O)OCCc1ccc2ccccc2c1)N1C(=O)C2=C(C3CC3)c3ccsc3C3(C4CC5CC(C4)CC3C5)C2C1=O (stereo not shown) [(5)] | 532 | 0.69 | 2.54 | – | – | – | 10.2 | –
O=C(CCCCN1C(=O)C2=C(C3CC3)c3ccsc3C3(C4CC5CC(C4)CC3C5)C2C1=O)OCCc1ccc2ccccc2c1 (stereo not shown) [(6)] | 549 | 0.72 | 2.38 | – | – | – | 8.75 | –
O=C1OC(=O)C2C1=C(C1CC1)c1cc(Br)sc1C21C2CC3CC(C2)CC1C3 (stereo not shown) [(7), 2-bromo-4-cyclopropyl-6,7-dihydridospirobenzo[5,6-b]thiophenedicarboxyanhydride-7,2'-tricyclo[3.1.1^3.7]decane] | 529 | 1.21 | 2.25 | – | – | – | 9.17 | –
CC(=O)CN1C(=O)C2=C(C3CC3C)c3cc(-c4ccccc4)sc3C3(C4CCC3CC4)C2C1=O (stereo not shown) [(10)] | 610 | 0.83 | 3.33 | 615 | 0.82 | 3.54 | – | T1/2 of fulgide or fulgimide compound ([4]; with chromene 3 (0.08 part)): 7.92 days; Color tone in T0 ([5]; with chromene 3 (0.08 part)): green; Color tone in T1/2 ([5]; with chromene 3 (0.08 part)): bluish gray
CNC(=O)CCC(=O)CCN1C(=O)C2=C(C3CC3SC)c3ccn(C)c3C3(C4CCC3(C)CC4)C2C1=O (stereo not shown) [(15)] | 613 | 0.69 | 2.71 | – | – | – | – | T1/2 of fulgide or fulgimide compound ([4]; with chromene 5 (0.04 part)): 6.67 days; Color tone in T0 ([5]; with chromene 5 (0.04 part)): green; Color tone in T1/2 ([5]; with chromene 5 (0.04 part)): light gray
NC1CC1C1=C2C(=O)N(COC(=O)Cc3cccc4ccccc34)C(=O)C2C2(c3c1ccn3-c1ccccc1)C1(O)CCC2(O)CC1 (stereo not shown) [(21)] | 613 | 0.78 | 2.96 | – | – | – | – | T1/2 of fulgide or fulgimide compound ([4]; with chromene 2 (0.03 part)): 7.17 days; Color tone in T0 ([5]; with chromene 2 (0.03 part)): green; Color tone in T1/2 ([5]; with chromene 2 (0.03 part)): green
CCCC1CC1C1=C2C(=O)N(C(C)C(C)=O)C(=O)C2C2(c3oc(OC)cc31)C1CCCC2CCC1 (stereo not shown) [(30)] | 569 | 0.73 | 3.25 | 571 | 0.68 | 3.54 | – | T1/2 of fulgide or fulgimide compound ([4]; with chromene 1 (0.03 part)): 7.75 days; Color tone in T0 ([5]; with chromene 1 (0.03 part)): gray; Color tone in T1/2 ([5]; with chromene 1 (0.03 part)): gray
